Laboratory results: patent US9981950B2, “Triazoles as NR2B receptor inhibitors” (Janssen Pharmaceuticals, Inc., priority 2014, dated 2018)

Key:
[1] = target: cloned human NR1/NR2B ion channels (Homo sapiens (Human), UniProt Q05586+Q13224); assay: HNR2BC: calcium influx assay on cloned human NR1/NR2B ion channels expressed in HEK cells; assay type: cell-based; conditions: HEK cells hNR1/NR2B, 100 μM glutamate + 100 μM glycine, 3 parameter plot
Method: HNR2BC: Effects of Test Articles on Cloned Human NR1/NR2B Ion Channels Expressed in Mammalian Cells
The ability of test compounds to act as an antagonist of NR1/NR2B were evaluated with a calcium influx assay (Calcium 5 Assay Kit, Molecular Devices).
For the antagonist assessment, NR1/NR2B was activated with the positive control agonist (Mg^2+-free HBPS+100 μM glutamic acid+100 μM glycine). The effect of each test article to inhibit the signal was examined after agonist stimulation and compared to the positive control antagonist (MK-801).
A HEK cell line, stable transfected with hNR1/NR2B was used. This tetracycline inducible cell line is transfected with GRIN1 (GeneBank accession number NM 007327.2) and GRIN2B (GeneBank accession number NM_000834.3.). The cells were cultured in cell culture flasks with DMEM/F12 supplemented with 10% FCS, 1% PenStrep and a selection of additional antibiotics.
Forty-Eight (48) hours before the assay the cells were plated into 96-well black well, flat clear bottom microtiter plates at a density of 50000 cells/well. Twenty-Four (24) hours later the receptor expression was induced by the addition of 1 μg/ml tetracycline in the presence of 2 mM ketamine and 200 μM 7-CKA. After 24 h of receptor induction the plates were used for the assay.
The medium was removed and the cells were loaded with 200 μl loading buffer (Molecular Devices) in Mg2+-free HBPS containing 100 μM 7-CKA at 37° C. for one (1) hour.
The test compounds were then solubilized in 100% DMSO and diluted to yield eight (8) different concentrations in 100% DMSO. A 96 well drug plate was prepared by diluting with water and glycine/glutamate to a 5-fold of final test concentration. Fluorescence intensity of the cells in the plate was measured in a FlexStation using an excitation wavelength of 485 nm and an emission wavelength of 525 nm. Twenty (20) seconds after starting the recordings the compounds together with the agonists glycine (100 μM) and glutamate (100 μM) were added into the wells and the fluorescence measured for ninety (90) seconds in summary.
The IC50 values provided in the paragraph below were determined using a 3 parameter plot.

[2] = target: hERG-receptor (Homo sapiens (Human), UniProt Q12809); assay: HERGBD: inhibition of specific 3H-Dofetilide binding to the hERG-receptor; conditions: HEK cell membranes with human ERG, Hill-plot 2-parameter-model
Sequence of hERG-receptor (Q12809 whole entry): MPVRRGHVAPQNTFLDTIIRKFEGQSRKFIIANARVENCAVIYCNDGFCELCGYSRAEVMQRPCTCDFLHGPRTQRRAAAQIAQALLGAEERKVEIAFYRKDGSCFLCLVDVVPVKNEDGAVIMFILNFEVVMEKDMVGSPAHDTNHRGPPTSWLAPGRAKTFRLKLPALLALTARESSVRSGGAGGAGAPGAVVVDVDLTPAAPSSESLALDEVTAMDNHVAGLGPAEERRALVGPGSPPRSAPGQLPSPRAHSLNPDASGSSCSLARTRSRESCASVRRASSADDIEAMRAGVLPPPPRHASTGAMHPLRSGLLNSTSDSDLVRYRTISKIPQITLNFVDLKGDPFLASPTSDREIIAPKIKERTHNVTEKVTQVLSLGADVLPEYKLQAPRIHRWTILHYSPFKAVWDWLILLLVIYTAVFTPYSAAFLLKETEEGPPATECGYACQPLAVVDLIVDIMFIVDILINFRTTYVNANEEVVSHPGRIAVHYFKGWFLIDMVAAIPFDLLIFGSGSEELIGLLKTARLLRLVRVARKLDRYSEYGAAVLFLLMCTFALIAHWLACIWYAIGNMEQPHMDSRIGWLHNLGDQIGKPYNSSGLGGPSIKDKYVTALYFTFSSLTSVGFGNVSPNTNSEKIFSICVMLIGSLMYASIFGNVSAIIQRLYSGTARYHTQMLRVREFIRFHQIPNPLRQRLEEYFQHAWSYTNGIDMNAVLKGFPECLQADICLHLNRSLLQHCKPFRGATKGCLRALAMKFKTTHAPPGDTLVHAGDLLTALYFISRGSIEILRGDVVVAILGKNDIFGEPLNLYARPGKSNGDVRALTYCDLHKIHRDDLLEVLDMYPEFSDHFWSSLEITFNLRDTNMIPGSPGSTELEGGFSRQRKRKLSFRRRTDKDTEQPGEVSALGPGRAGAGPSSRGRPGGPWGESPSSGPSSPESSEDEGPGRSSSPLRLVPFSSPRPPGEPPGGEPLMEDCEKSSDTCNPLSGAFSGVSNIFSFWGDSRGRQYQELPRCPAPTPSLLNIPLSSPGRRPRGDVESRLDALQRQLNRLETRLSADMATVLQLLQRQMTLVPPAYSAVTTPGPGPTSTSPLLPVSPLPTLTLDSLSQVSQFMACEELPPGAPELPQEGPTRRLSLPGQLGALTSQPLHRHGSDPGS
Summary of the method: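 Membranes from HEK cells stably expressing human ERG incubated 90 min at RT with 1.5 nmol/l 3H-dofetilide in 20 mM HEPES/0.1 mM KCl pH 7.2, inhibitor in 1% DMSO. Nonspecific binding with […] dofetilide; bound ligand separated by filtration and scintillation counted.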

[3] = target: rat NR1/NR2B receptor (Rattus norvegicus (Rat), UniProt P35439+Q00960); assay: RRNR2BB: inhibition of specific binding to the rat NR1/NR2B receptor; conditions: [3H]-Ifenprodil binding, rat brain membranes, Hill-plot 2-parameter-model
Sequence of rat NR1/NR2B receptor (Q00960 27-1482, other chains not shown): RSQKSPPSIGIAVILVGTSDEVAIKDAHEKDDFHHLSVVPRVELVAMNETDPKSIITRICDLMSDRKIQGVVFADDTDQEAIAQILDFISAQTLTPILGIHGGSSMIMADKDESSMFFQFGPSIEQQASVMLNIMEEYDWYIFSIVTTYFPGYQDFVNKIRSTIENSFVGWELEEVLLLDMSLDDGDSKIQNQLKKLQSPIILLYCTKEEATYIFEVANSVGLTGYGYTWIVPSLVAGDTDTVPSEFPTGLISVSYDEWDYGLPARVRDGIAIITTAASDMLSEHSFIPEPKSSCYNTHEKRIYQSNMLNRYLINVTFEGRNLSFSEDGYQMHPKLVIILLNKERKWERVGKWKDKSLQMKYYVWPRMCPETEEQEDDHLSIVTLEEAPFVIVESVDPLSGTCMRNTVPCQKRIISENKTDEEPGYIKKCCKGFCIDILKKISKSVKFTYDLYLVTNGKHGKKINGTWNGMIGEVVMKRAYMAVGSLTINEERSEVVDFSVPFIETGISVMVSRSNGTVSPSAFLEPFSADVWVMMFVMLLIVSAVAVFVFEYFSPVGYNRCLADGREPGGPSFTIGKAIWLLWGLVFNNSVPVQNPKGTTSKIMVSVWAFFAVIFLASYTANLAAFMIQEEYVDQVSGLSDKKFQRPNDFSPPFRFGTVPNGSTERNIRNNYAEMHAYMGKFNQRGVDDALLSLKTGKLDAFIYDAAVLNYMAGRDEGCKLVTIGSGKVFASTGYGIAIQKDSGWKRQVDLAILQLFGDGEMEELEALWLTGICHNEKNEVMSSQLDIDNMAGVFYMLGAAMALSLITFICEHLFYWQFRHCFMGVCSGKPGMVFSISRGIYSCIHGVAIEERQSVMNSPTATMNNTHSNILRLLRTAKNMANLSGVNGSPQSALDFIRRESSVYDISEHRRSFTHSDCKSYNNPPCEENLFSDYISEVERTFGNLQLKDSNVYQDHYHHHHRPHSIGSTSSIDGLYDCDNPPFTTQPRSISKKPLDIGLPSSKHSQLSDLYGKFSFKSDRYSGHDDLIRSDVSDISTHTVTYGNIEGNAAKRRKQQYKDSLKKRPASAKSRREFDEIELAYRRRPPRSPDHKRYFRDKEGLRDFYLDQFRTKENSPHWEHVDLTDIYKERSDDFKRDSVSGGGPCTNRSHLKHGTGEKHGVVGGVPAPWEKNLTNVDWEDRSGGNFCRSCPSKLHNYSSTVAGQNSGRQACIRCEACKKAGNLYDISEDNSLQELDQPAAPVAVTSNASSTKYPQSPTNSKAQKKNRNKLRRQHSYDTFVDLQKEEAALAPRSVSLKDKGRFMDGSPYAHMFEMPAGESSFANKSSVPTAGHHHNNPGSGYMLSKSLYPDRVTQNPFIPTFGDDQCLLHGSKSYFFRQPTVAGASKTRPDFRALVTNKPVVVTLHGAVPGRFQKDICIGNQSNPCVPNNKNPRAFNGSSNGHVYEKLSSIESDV
Summary of the method: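 Washed membranes from male Wistar rat forebrain (whole brain minus cerebellum) in 5 mM Tris/1 mM EDTA pH 7.4 used in ifenprodil-site binding, 60 min at 4° C. Nonspecific binding defined with […] CP101.606; bound separated by filtration on PEI-soaked filters. IC50 from Hill plot, 2-parameter model.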

Sequence of cloned human NR1/NR2B ion channels (Q13224 27-1484, other chains not shown): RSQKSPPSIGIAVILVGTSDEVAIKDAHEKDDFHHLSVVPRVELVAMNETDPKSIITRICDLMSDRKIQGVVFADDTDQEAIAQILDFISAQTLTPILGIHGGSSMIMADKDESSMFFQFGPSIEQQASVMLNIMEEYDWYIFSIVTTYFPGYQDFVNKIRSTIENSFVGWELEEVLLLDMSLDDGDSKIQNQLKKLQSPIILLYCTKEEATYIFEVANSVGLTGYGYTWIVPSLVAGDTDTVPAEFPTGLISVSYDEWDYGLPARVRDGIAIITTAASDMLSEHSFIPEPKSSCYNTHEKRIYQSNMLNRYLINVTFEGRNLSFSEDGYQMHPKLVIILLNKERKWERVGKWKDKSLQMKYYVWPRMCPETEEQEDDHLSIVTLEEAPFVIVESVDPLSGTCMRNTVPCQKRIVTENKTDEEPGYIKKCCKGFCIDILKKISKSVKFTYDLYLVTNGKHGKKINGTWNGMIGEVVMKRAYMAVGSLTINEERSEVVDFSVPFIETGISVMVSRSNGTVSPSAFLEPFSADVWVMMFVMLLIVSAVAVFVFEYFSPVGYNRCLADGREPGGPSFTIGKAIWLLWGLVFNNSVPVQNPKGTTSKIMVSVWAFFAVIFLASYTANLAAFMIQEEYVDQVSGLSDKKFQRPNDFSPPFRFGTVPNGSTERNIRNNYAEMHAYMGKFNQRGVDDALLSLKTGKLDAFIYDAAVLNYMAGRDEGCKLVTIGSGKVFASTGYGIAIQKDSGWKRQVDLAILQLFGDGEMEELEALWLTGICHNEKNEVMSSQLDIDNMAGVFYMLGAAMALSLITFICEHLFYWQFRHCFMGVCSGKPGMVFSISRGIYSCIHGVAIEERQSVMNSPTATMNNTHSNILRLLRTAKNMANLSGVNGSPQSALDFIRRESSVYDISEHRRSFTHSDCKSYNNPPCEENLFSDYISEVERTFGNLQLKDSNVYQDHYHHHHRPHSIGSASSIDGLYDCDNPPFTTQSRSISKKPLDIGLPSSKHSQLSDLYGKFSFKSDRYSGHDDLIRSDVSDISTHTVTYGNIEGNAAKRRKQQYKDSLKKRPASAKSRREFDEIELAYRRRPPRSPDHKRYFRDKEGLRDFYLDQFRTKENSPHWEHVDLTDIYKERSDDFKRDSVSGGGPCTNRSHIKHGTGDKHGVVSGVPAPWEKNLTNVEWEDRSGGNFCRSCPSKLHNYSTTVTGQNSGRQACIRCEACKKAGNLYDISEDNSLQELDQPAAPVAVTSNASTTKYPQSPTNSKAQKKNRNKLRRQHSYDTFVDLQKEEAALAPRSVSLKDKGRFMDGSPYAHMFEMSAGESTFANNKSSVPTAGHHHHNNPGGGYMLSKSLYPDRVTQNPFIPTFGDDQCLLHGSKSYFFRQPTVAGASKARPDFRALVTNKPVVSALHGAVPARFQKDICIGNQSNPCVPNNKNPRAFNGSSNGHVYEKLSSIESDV

SMILES | IC50 [1] [µM] | IC50 [3] [µM] | IC50 [2] [µM]
CCc1nccn1Cc1cn(-c2ccc(F)c(Cl)c2)nn1 [Example 42, 1-(3-Chloro-4-fluoro-phenyl)-4-(2-ethyl-imidazol-1-ylmethyl)-1H-[1,2,3]triazole] | 3.17 |  | 
CC(C)c1nccn1Cc1cn(-c2ccc(Cl)c(OC(F)F)c2)nn1 [Example 97, 1-(4-Chloro-3-difluoromethoxy-phenyl)-4-(2-isopropyl-imidazol-1-ylmethyl)-1H-[1,2,3]triazole] | 0.58 |  | 
Fc1ccc(-n2cc(Cc3cc[nH]n3)nn2)cc1C(F)F [Example 115, 1-(3-difluoromethyl-4-fluoro-phenyl)-4-(1H-pyrazol-3-ylmethyl)-1H-[1,2,3]triazole] | 10.5 |  | 

Further compounds by falling IC50 [1], results first:

IC50 [1] [µM] | IC50 [3] [µM] | SMILES | IC50 [2] [µM]
22.4 | > 5 | Cc1ccc(C(=O)c2nccn2Cc2cn(-c3ccc(Cl)cc3)nn2)cc1 [Example 116, [1-[[1-(4-chlorophenyl)triazol-4-yl]methyl]imidazol-2-yl]-(p-tolyl)methanone] | 
3.42 |  | Nc1nccn1Cc1cn(-c2cc(F)cc(C(F)F)c2)nn1 [Example 111, 4-(2-amino-imidazol-1-ylmethyl)-1-(3-fluoro-5-difluoromethyl-phenyl)-1H-[1,2,3]triazole] | 3.29
